Measured values: patent US20240270722A1, “POLO LIKE KINASE 4 INHIBITORS” (ORIC Pharmaceuticals, Inc., priority 2021, published 2024)
pIC50: −log10 of the molar value.

What was measured:
[1] = molecular target: T1, human recombinant Aurora A (Homo sapiens, UniProt O14965); experiment: Aurora A Kinase Biochemical Assay (ADP-Glo); conditions: selectivity ratio Aurora A vs PLK4
T1 construct: purchased ThermoFisher PR5935A
T1 sequence (O14965 1-403): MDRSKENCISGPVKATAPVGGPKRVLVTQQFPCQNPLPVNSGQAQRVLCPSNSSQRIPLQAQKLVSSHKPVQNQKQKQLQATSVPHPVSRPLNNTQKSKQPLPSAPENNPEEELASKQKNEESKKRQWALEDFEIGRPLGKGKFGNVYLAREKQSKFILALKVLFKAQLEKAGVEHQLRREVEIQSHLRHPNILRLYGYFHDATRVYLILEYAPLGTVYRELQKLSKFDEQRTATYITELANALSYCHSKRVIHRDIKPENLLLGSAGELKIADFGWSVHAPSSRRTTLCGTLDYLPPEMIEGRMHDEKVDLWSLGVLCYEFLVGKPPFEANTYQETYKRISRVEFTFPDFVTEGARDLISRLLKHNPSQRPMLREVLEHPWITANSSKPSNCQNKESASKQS
Experimental: (§1) Activity of human recombinant Aurora A (ThermoFisher, cat #PR5935A) was measured by quantification of adenosine diphosphate (ADP) using the ADP-Glo Kinase Assay Kit (Promega, cat #V9102). […] 5 μL of 5.0 nM Aurora A in assay buffer (50 mM HEPES, pH 7.5, 0.01% Brij-35, 0.01% BSA, 10 mM MgCl2, 1 mM EGTA, 1 mM DTT) was added to the plates. Test compounds and Aurora A were incubated for 15 minutes at room temperature (RT). […] Reactions were stopped and the remaining ATP depleted by adding 10 uL of ADP-Glo reagent (Promega, cat #V912B) and incubating for 40 minutes at RT. The simultaneous conversion of the remaining ADP to ATP and measurement of the newly synthesized ATP was achieved by addition of 20 μL Kinase Detection reagent (Promega, cat #V914B), incubation for 30 min at RT, and luminescence detection using the EnVision plate reader (PerkinElmer). […] The IC50 values reported in Table 2 were determined using four parameter non-linear regression curve fit.

[2] = molecular target: T2, human recombinant Aurora B (Homo sapiens, UniProt Q96GD4); experiment: Aurora B Kinase Biochemical Assay (ADP-Glo); conditions: selectivity ratio Aurora B vs PLK4
T2 construct: purchased ThermoFisher PR9210B
T2 sequence (Q96GD4 whole entry): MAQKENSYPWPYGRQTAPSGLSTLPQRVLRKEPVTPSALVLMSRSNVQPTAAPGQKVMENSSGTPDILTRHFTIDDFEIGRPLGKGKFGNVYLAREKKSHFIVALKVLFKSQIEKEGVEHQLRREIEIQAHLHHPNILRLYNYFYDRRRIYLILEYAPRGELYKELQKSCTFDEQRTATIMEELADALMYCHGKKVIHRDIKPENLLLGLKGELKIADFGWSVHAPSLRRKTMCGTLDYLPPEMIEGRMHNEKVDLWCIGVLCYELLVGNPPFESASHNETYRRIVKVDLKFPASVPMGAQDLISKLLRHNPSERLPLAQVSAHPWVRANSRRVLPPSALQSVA
Experimental: as §1, with “Aurora B” for “Aurora A”, “cat #PR9210B)” for “cat #PR5935A)”, “of 20” for “of 5.0”

[3] = molecular target: T3, human recombinant PLK4 (Homo sapiens, UniProt O00444); experiment: PLK4 Biochemical Assay (ADP-Glo)
T3 construct: purchased ThermoFisher 4PV6396
T3 sequence (O00444 1-970): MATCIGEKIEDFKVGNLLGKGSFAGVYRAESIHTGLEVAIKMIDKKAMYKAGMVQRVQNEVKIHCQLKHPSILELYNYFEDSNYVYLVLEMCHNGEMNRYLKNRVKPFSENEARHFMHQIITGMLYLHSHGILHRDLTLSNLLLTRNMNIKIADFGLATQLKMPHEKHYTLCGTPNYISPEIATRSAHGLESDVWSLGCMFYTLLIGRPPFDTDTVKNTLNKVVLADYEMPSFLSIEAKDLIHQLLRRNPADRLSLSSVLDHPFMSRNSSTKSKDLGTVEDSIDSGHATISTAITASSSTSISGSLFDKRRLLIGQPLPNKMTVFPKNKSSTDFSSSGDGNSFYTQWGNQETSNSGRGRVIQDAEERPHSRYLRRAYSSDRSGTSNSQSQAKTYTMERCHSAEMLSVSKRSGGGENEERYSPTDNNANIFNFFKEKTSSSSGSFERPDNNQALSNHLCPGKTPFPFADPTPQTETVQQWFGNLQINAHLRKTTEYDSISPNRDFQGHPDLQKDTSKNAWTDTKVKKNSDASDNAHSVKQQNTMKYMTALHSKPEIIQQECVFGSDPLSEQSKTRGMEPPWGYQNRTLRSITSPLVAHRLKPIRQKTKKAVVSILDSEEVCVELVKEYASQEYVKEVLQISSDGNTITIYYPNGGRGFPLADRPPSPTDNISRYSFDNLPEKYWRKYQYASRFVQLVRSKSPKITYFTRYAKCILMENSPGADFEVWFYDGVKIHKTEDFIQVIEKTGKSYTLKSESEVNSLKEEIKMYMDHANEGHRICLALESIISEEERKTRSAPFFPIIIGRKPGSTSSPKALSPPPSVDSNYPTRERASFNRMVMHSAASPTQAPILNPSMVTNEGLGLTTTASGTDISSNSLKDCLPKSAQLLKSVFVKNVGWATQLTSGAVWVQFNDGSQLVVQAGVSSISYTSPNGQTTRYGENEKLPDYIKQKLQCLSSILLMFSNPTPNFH
Experimental: 5 μL of 1.0 nM PLK4 protein in assay buffer (50 mM HEPES, pH 7.5, 0.01% Brij-35, 0.01% BSA, 10 mM MgCl2, 1 mM EGTA, 1 mM DTT) was added to the plates. Test compounds and PLK4 were incubated for 15 minutes at room temperature (RT). […] The IC50 values reported in Table 2 were determined using four parameter non-linear regression curve fit.

Row | Compound | [Aurora A IC50 (nM)]/[PLK4 IC50 (nM)] [1] | [Aurora B IC50 (nM)]/[PLK4 IC50 (nM)] [2] | pIC50 [3]
1 | COc1ccc2c(c1)[C@]1(C[C@H]1c1ccc3c(Nc4ncnc(N5CCOCC5)c4OC(F)F)n[nH]c3c1)C(=O)N2 [Example 109, (1R,2S)-2-(3-{[5-(difluoromethoxy)-6-(morpholin-4-yl)pyrimidin-4-yl]amino}-1H-indazol-6-yl)-5′-methoxyspiro[cyclopropane-1,3′-indol]-2′(1′H)-one] | 50000 |  | 
2 | CCOc1cc(S(=O)(=O)NC)cnc1Nc1n[nH]c2cc([C@@H]3C[C@@]34C(=O)Nc3ccc(OC)cc34)ccc12 [Example 275, 5-ethoxy-6-({6-[(1R,2S)-5′-methoxy-2′-oxo-1′,2′-dihydrospiro[cyclopropane-1,3′-indol]-2-yl]-1H-indazol-3-yl}amino)-N-methylpyridine-3-sulfonamide] |  | 230 | 
3 | COc1cnc(C)nc1Nc1n[nH]c2cc([C@@H]3C[C@]34C(=O)Nc3ccc(OC(F)(F)F)cc34)ccc12 [Example 139, (1S,2S)-2-{3-[(5-methoxy-2-methylpyrimidin-4-yl)amino]-1H-indazol-6-yl}-5′-(trifluoromethoxy)spiro[cyclopropane-1,3′-indol]-2′(1′H)-one] | 7.4 | 9.6 | 
4 | COc1ccc2c(c1)[C@]1(C[C@H]1c1ccc3c(Nc4cc(OC)c(S(N)(=O)=O)cc4OC)n[nH]c3c1)C(=O)N2 [Example 212, 2,5-Dimethoxy-4-({6-[(1R,2S)-5′-methoxy-2′-oxo-1′,2′-dihydrospiro[cyclopropane-1,3′-indol]-2-yl]-1H-indazol-3-yl}amino)benzene-1-sulfonamide] |  | 280 | 
5 | COc1ccc2c(c1)[C@]1(C[C@H]1c1ccc3c(Nc4nn(C)cc4OC)n[nH]c3c1)C(=O)N2.O=C(O)C(F)(F)F [Example 79, (1R,2S)-5′-methoxy-2-{3-[(4-methoxy-1-methyl-1H-pyrazol-3-yl)amino]-1H-indazol-6-yl}spiro[cyclopropane-1,3′-indol]-2′(1′H)-one] | 210.5378 | 6.986 | 
6 | COc1cnc(C)nc1Nc1n[nH]c2cc([C@@H]3C[C@@]34C(=O)Nc3ccc(OC(F)(F)F)cc34)ccc12 [Example 138, (1R,2S)-2-{3-[(5-methoxy-2-methylpyrimidin-4-yl)amino]-1H-indazol-6-yl}-5′-(trifluoromethoxy)spiro[cyclopropane-1,3′-indol]-2′(1′H)-one] | 70 | 36 | 
7 | COc1cnc(C)nc1Nc1n[nH]c2cc([C@@H]3C[C@@]34C(=O)Nc3ccc(C(F)(F)F)cc34)ccc12 [Example 137, (1R,2S)-2-{3-[(5-methoxy-2-methylpyrimidin-4-yl)amino]-1H-indazol-6-yl}-5′-(trifluoromethyl)spiro[cyclopropane-1,3′-indol]-2′(1′H)-one] | 62 | 72 | 

More lines, now with the values ahead:

Row | [Aurora A IC50 (nM)]/[PLK4 IC50 (nM)] [1] | [Aurora B IC50 (nM)]/[PLK4 IC50 (nM)] [2] | pIC50 [3] | Compound
8 | 355.9465 | 8.474 |  | COc1ccc2c(c1)[C@]1(C[C@H]1c1ccc3c(Nc4nccc5c4OC[C@@H]5CO)n[nH]c3c1)C(=O)N2 (single isomer, unassigned) [Example 33]
9 | 1884.6028 | 381.4972 | 8.21 | COc1ccc2c(c1)[C@]1(C[C@H]1c1ccc3c(Nc4ncc(P(C)(C)=O)cc4OC)n[nH]c3c1)C(=O)N2 [Example 225, (1R,2S)-2-(3-{[5-(dimethylphosphoryl)-3-methoxypyridin-2-yl]amino}-1H-indazol-6-yl)-5′-methoxyspiro[cyclopropane-1,3′-indol]-2′(1′H)-one]
10 | 893.3126 | 19.96 |  | COc1ccc2c(c1)[C@]1(C[C@H]1c1ccc3c(Nc4nccc5c4OC[C@H]5CO)n[nH]c3c1)C(=O)N2 (single isomer, unassigned) [Example 34]
